Measured values as given in patent US5385918A, “Aminomethylene-peptides as immunosuppressants” (Miles Inc., priority 1993, dated 1995).

Key:
FKBP = FKBP (Homo sapiens, UniProt P62942); assay: PPIase Inhibition Assay; format: biochemical; settings: inhibition of PPIase activity of FKBP, substrate Succinyl-Ala-Phe-Pro-Phe-para-nitroanilide
Method: This assay follows in principle the procedure described in Kofron et al., 1991, Biochemistry 30:6127. The three main reagents used are PPIase, a substrate for PPIase, and a selected inhibitor compound of the present invention. The basic principle behind this assay is the conversion of the cis isomer of the substrate to the trans form, which conversion is catalyzed by PPIase. Essentially, inhibition of this PPIase activity is measured for the selected compounds. A peptide chymotrypsin substrate containing a proline in the P2 position is only cleaved by chymotrypsin when the Phe-Pro bond is in the trans isomeric configuration. In the presence of excess chymotrypsin, all of the trans peptide isomers are cleaved within approximately five seconds, leaving only cis forms.
The cis peptide will spontaneously convert to the trans isomer at a slow rate. The cis to trans conversion is catalyzed by isomerases at a much faster rate than this spontaneous conversion. Proteins with PPIase activity are examples of such isomerases. After isomerization, the peptide is cleaved by chymotrypsin releasing p-nitroaniline which can be monitored at 390 nm. The rate of release is then calculated using a first order rate plus offset equation utilizing the ENZFITTER program (Leatherbarrow, BIOSOFT, Cambridge, United Kingdom).
In a plastic cuvette are added 950 ul of ice cold assay buffer (25 mM HEPES, pH 7.8, 100 mM NaCl), 10 uL of FKBP (2.5 uM in 10 mM Tris-Cl pH 7.5, 100 mM NaCl, 1 mM dithiothreitol), 25 ul of chymotrypsin (50 mg/ml in 1 mM HCl) and 10 ul of the test compound at various concentrations in dimethyl sulphoxide. The reaction is initiated by addition of 5 ul of substrate (Succinyl-Ala-Phe-Pro-Phe-para-nitroanilide, 5 mg/ml in 235 mM LiCl in trifluoroethanol).
The absorbance at 390 nm versus time is monitored for 90 sec using a Beckman DU70 spectrophotometer. The absorbance versus time data files are transferred to an IBM XT computer and the rate constants determined using the commercial Enzfitter program. For each set of data, the uncatalyzed rate of conversion is measured and the uninhibited enzymatic rate determined. The data are expressed as % Inhibition and are calculated as follows: [formula] where kobs is the rate in the presence of a selected test compound, kuncat is the rate in the absence of enzyme, and kuninh is the rate in the presence of enzyme and absence of inhibitor. Data are plotted as percent inhibition versus concentration of inhibitor. The values of the concentration of inhibitor required for 50% inhibition of enzyme activity (IC50) were determined by nonlinear least squares regression analysis.

human T-cells = assay: Suppression of Human T-Cell Proliferation Assay (PHA-stimulated, [3H]-thymidine incorporation); format: cell-based; settings: inhibition of [3H]-thymidine incorporation of PHA-stimulated purified human T-cells, 72 hours
Description: Inhibition of mitogen-induced T-cell proliferation can be used to profile immunosuppressive activity of test compounds. In the description of the assay which follows, mitogen-induced T-cell proliferation was used to test the inhibitory potencies of select compounds of the present invention.
In an assay similar to that described by Bradley in Mishell et al. (Eds.), 1980, Selected Methods in Cellular Immunology, pp 156-161, W. H. Freeman & Co., San Fransisco, Calif., T-cells were stimulated by incubation with phytohemagglutinin (PHA) which binds to cell surface molecules, including the T-cell receptor. This stimulation results in proliferation which can be measured by incorporation of [^3 H]-thymidine into cellular DNA.
Fresh LeukoPaks were obtained from the New York Blood Center, New York, N.Y. The cells, including erythrocytes and leukocytes, were diluted with Hank's Balanced Salt Solution (HBSS) (GIBCO, Grand Island, N.Y.) and layered over Lymphoprep (Nycomed Pharma AS, Oslo, Norway) in sterile 50 ml conical centrifuge tubes. Lymphocytes were isolated at the Hank's/Nycomed interface after centrifugation at 2000×g, 4° C. for 15 min. The lymphocytes were washed with Minimal Essential Medium (GIBCO) containing 2% fetal bovine serum (FBS) (Sigma Chemical Co., St. Louis, Mo.), 1% HEPES buffer (GIBCO) and 1% Penicillin-Stretomycin solution (GIBCO).
T-cells were further purified essentially by sheep erythrocyte (SRBC) rosetting as described by Morimoto et al., 1983, J. Immunol. 130:157. The isolated lymphocytes were adjusted to 2×10^7 cells/ml and 5 ml aliquots of the cell suspension were incubated for 10 minutes at room temperature with 5 ml of a 5% SRBC (Cappel, Organon Technika Corp., West Chester, Pa.) suspension. The cells were gently pelleted by centrifugation at 300 rpm for 10 minutes, followed by a 1 hour incubation at room temperature to allow rosette formation. The cells were gently resuspended,layered over Lymphoprep and centrifuged for 30 minutes at 500×g. The pellet, containing rosetted T-cells and SRBC was treated with ice cold buffered ammonium chloride (GIBCO) to lyse the erythrocytes. T-cells were washed twice with HBSS.
Purified T-cells were resuspended at 2×10^6 cells/ml in complete culture medium composed of RPMI-1640 (Whittaker Bioproducts, Walkerville, Md.) with 10% FBS (Sigma), 2 mM L-glutamine (GIBCO), 1% Penicillin-Streptomycin (GIBCO) and 15 mM HEPES (GIBCO). In 96-well plates (Becton Dickinson, Lincoln Park, N.J.), 0.1 ml aliquots of T-cell suspension were mixed with 0.05 ml of 40 μg/ml PHA-M (Sigma). The compounds of this invention were dissolved in dimethylsulfoxide at 10 mM and various dilutions in complete medium were added in duplicate wells (0.05 ml/well). The plates were incubated at 37° C. in a humidified atmosphere of 5% carbon dioxide and 95% air for 72 hours.
Proliferation was assessed by measurement of [^3 H]-thymidine incorporation. During the last 6 hours of incubation, the cells were pulse labelled with 1 μCi/well of [^3 H]-thymidine (New England Nuclear, Boston, Mass.). The cells were harvested onto glass fiber paper using a plate harvester and the radioactivity incorporated into cellular DNA corresponding to individual wells was measured by standard liquid scintillation counting methods. The mean counts per minute (CPM) of replicate wells was calculated and linear regression analysis of mean CPM versus compound concentration was used to determine the concentration of compound which would inhibit [^3 H]-thymidine incorporation of T-cells by 50% (IC50).

FKBP, sequence (P62942 whole entry): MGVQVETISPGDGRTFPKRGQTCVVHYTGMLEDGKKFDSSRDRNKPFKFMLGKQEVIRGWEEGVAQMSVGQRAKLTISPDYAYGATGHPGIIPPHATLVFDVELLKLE

Structure (SMILES)	IC50 (FKBP) [nM]	IC50 (human T-cells) [nM]
CC[C@H](C)[C@H](NC(=O)[C@@H]1CCCN1C[C@H](CC(C)C)NC(=O)[C@H](CC(N)=O)NC(=O)OC(C)(C)C)C(=O)OCc1ccccc1 [Example 10, 1-[1-[2-(S)-[[4-Amino-2-(S)-[[(1,1-dimethylethoxy)-carbonyl]amino]-1,4-dioxobutyl]amino]-4-methylpentyl]-L-proline]-L-isoleucine Phenylmethyl Ester]	900	30000
CC[C@H](C)[C@H](NC(=O)[C@@H]1CCCN1CC(CC(C)C)NC(=O)OC(C)(C)C)C(=O)OCc1ccccc1 (stereo partly drawn) [Example 5, 1-[1-[2-[[(1,1-Dimethylethoxy)carbonyl]amino]-4-methylpentyl]-L-proline]-L- Isoleucine Phenylmethyl Ester]	3000	27000
CC[C@H](C)[C@H](NC(=O)[C@@H]1CCCN1C[C@H](CC(C)C)NC(=O)[C@H](CC(N)=O)NC(=O)[C@@H](N)Cc1ccccc1)C(=O)OCc1ccccc1 [Example 15, 1-[1-[2-(S)-[[1-[2-(S)-Amino-1-Oxo-3-phenylpropyl]-L-asparaginyl]amino]-4-methylpentyl]-L-proline]-L-isoleucine Phenylmethyl Ester]	2500	–
CC[C@H](C)[C@H](NC(=O)[C@@H]1CCCN1CC(CC(C)C)NC(=O)[C@H](CC1CCCCC1)NC(=O)OC(C)(C)C)C(=O)OCc1ccccc1 (stereo partly drawn) [Example 11, 1-[1-[2-[[3-Cyclohexyl-2-(S)-[[(1,1-dimethylethoxy)-carbonyl]amino]-1-oxopropyl]amino]-4-methylpentyl]-L-proline]-L-isoleucine Phenylmethyl Ester]	8400	< 6000
CC[C@H](C)[C@H](NC(=O)[C@@H]1CCCN1C[C@H](CC(C)C)NC(=O)[C@@H](N)CC(N)=O)C(=O)OCc1ccccc1 [Example 12]	2400	< 6000
CC[C@H](C)[C@H](NC(=O)[C@@H]1CCCCN1C[C@@H](NC(=O)CC(C)(C)C)[C@@H](C)CC)C(=O)NCc1ccccc1 [Example 22, 1-[1-[2-(S)-[(3,3-dimethyl-butyryl)-amino]-3-(S)-methylpentyl]-L-homoproline]-L-isoleucine benzylamide]	–	1000
CC[C@H](C)[C@H](NC(=O)[C@@H]1CCCCN1C[C@@H](NC(=O)C(C)(C)C)[C@@H](C)CC)C(=O)NCc1ccccc1 [Example 21, 1-[1-[2-(S)-[(2,2-Dimethyl-propionyl)-amino]-3-(S)-methylpentyl]-L-homoproline]-L-isoleucine benzylamide]	–	720
CC[C@H](C)[C@H](NC(=O)[C@@H]1CCCCN1C[C@@H](NC(=O)CC(C)C)[C@@H](C)CC)C(=O)NCc1ccccc1 [Example 23, 1-[1-[2-(S)-[(3-methyl-butyryl)-amino]-3-(S)-methylpentyl]-L-homoproline]-L -isoleucine benzylamide]	–	900
CC[C@H](C)[C@H](NC(=O)[C@@H]1CCCN1C[C@H](CC(C)C)NC(=O)[C@@H](N)CC1CCCCC1)C(=O)OCc1ccccc1 [Example 13, 1-[1-[2-(S)-[[2-(S)-amino-3-cyclohexyl-1-oxopropyl]-amino]-4-methylpentyl]-L-proline]-L-isoleucine Phenylmethyl Ester]	1300	< 6000
CCCC(=O)N[C@H](CN1CCCC[C@H]1C(=O)N[C@H](C(=O)NCc1ccccc1)[C@@H](C)CC)[C@@H](C)CC [Example 24]	–	1700
COC(=O)[C@H](Cc1ccc(OC)cc1)N(C)C(=O)[C@@H]1CCCN1C[C@H](CC(C)C)NC(=O)OC(C)(C)C [Example 9, 1-Methyl-1-[1-[2-(S)-[[(1,1-dimethylethoxy)carbonyl]amino]-4-methylpentyl]-L-proline]-L-Tyrosine(O-Methyl)Methyl Ester]	> 50000	16000
